Each structure is given as a SMILES string.

For test [1], the target named is T1, Peroxisome proliferator-activated receptor delta (Homo sapiens) (UniProt Q03181).
T1 sequence (whole entry): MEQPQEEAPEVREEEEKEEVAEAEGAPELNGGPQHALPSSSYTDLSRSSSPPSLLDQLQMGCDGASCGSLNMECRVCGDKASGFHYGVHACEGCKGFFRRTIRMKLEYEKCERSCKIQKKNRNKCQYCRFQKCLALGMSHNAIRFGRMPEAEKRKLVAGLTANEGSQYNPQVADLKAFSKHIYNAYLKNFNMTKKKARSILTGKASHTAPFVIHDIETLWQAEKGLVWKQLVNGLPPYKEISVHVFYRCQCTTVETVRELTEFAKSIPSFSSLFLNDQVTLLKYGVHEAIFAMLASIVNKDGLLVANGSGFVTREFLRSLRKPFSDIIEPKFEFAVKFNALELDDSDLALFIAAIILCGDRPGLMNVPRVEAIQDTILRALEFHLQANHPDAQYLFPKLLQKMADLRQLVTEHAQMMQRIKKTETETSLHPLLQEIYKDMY
Nature of the test: Agonist activity at human PPARdelta expressed in african green monkey CV1 cells co-transfected with Gal4 assessed as reporter activity by transient transactivation assay. Type of test: functional, cell-based. Further details: concentration or dose not given beside the values. The settings on record: CV-1.

The target in test [2] is T2, Peroxisome proliferator-activated receptor gamma (Homo sapiens, UniProt P37231).
T2 sequence (P37231 whole entry): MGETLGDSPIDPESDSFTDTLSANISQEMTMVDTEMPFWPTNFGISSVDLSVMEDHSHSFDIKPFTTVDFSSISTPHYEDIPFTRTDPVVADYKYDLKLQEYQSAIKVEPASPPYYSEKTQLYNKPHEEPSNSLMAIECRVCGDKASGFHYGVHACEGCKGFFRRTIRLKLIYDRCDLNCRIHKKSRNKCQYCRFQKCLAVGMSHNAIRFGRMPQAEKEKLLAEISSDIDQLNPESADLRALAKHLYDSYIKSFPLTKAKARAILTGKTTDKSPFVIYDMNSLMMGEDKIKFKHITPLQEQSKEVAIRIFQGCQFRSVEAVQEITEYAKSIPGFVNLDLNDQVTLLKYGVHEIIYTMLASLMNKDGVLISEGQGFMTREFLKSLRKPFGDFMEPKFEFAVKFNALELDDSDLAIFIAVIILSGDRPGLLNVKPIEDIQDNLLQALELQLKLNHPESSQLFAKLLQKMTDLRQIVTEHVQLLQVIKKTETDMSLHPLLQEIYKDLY
As to the kind of experiment: Agonist activity at human PPARgamma expressed in african green monkey CV1 cells co-transfected with Gal4 assessed as reporter activity by transient transactivation assay. Type of test: functional, cell-based, CV-1.

As to `CC(C)OC(Cc1ccc(OCCc2noc(-c3ccccc3)n2)cc1)C(=O)O` (stereo unspecified), the Activity in test [1] was under 40%.

`CC(C)OC(Cc1ccc(OCCc2noc(-c3ccc(F)cc3)n2)cc1)C(=O)O` (stereo unspecified): the Activity in test [1] was under 40%.

As for `CC(C)OC(Cc1ccc(OCCc2noc(-c3ccccc3C(F)(F)F)n2)cc1)C(=O)O` (stereo unspecified), the concentration giving a half-maximal response (EC50) (in general, the concentration needed to bring the measured effect to its halfway point) in test [2] amounted to 160 nM.

On to `CC(C)OC(Cc1ccc(OCCc2noc(-c3ccc(Cl)cc3)n2)cc1)C(=O)O` (stereo unspecified), for which the Activity in test [1] was 40%. For the molecule `CC(C)OC(Cc1ccc(OCc2noc(C3CCCCC3)n2)cc1)C(=O)O` (stereo unspecified), the Activity in test [1] was under 40%.

As to `CC(C)OC(Cc1ccc(OCCc2noc(-c3cc(C(F)(F)F)cc(C(F)(F)F)c3)n2)cc1)C(=O)O` (stereo unspecified), the Activity in test [1] is under 40%.

The values above are taken from ChEMBL document CHEMBL1154456, “CoMFA analysis of dual/multiple PPAR activators” (Eur J Med Chem, 2008).
